How the values were obtained:
[1] = target: Kappa-type opioid receptor (Homo sapiens, UniProt P41145)
[2] = target: 5-hydroxytryptamine receptor 7 (Homo sapiens, UniProt P34969)
[3] = target: T1, 5-hydroxytryptamine receptor 3A (Homo sapiens, UniProt P46098)
T1 sequence (P46098 whole entry): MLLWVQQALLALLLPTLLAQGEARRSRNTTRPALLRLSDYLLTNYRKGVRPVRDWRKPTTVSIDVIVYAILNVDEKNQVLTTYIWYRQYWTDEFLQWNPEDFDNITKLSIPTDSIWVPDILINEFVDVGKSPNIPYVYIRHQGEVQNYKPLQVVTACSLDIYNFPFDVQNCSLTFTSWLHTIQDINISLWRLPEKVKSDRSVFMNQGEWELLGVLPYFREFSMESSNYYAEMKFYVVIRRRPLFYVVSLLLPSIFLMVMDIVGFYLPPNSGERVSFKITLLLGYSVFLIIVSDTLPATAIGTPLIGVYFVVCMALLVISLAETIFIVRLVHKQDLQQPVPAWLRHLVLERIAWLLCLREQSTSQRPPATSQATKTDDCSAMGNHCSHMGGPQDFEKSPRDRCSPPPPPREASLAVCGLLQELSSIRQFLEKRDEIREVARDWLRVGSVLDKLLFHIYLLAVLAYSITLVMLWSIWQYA

[4] = target: Beta-1 adrenergic receptor (Rattus norvegicus, UniProt P18090)
[5] = target: D(1A) dopamine receptor (Homo sapiens, UniProt P21728)
[6] = target: T2, 5-hydroxytryptamine receptor 2C (Rattus norvegicus, UniProt P08909)
T2 sequence (P08909 whole entry): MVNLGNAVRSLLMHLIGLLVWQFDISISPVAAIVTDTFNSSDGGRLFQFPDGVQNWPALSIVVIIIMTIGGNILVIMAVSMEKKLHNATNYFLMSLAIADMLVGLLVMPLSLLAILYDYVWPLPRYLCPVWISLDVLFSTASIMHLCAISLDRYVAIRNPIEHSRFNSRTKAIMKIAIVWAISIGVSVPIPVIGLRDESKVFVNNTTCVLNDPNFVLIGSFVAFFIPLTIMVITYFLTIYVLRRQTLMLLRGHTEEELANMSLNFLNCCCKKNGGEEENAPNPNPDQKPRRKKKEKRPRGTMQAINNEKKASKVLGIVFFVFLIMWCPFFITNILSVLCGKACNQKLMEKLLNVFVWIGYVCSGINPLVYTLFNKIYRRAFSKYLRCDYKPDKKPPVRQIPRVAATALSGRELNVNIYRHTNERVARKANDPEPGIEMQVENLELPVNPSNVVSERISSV

[7] = target: Delta-type opioid receptor (Sus scrofa, UniProt P79291)
[8] = target: T3, Alpha-2A adrenergic receptor (Homo sapiens, UniProt P08913)
T3 sequence (P08913 whole entry): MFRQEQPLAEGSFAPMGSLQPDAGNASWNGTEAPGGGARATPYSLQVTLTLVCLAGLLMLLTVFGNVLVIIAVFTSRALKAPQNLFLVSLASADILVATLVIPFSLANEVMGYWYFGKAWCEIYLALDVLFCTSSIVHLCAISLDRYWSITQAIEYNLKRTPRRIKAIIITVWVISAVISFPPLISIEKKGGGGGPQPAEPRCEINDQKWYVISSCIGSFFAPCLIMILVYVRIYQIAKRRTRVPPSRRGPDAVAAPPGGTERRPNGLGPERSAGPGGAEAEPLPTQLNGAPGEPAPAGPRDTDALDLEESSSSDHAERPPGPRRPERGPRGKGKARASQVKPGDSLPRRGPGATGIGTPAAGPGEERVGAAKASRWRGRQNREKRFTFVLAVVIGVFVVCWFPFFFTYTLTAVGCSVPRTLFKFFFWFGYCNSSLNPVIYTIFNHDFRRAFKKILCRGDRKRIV

[9] = target: Mu-type opioid receptor (Homo sapiens, UniProt P35372)
[10] = target: Sodium-dependent serotonin transporter (Homo sapiens, UniProt P31645)
[11] = target: Sodium-dependent noradrenaline transporter (Homo sapiens, UniProt P23975)
[12] = target: T4, Alpha-1A adrenergic receptor (Homo sapiens, UniProt P35348)
T4 sequence (P35348 whole entry): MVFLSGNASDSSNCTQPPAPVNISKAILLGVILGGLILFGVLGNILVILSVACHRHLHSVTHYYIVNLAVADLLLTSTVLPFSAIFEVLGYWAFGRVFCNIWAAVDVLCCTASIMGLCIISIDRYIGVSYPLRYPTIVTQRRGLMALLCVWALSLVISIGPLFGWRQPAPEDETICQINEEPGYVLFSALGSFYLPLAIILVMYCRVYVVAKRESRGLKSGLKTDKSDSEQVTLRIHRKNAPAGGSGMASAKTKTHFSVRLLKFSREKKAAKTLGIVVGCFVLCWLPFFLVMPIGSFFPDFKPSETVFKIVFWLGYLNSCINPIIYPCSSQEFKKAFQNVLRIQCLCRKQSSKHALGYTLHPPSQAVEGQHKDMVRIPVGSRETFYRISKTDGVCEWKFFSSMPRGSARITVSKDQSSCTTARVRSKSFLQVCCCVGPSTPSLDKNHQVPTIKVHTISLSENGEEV

[13] = target: Gamma-aminobutyric acid receptor subunit alpha-1 (Rattus norvegicus, UniProt P62813)
[14] = target: Glutamate receptor ionotropic, NMDA 1 (Rattus norvegicus, UniProt P35439)
[15] = target: Vasopressin V2 receptor (Homo sapiens, UniProt P30518)
[16] = target: 5-hydroxytryptamine receptor 1B (Homo sapiens, UniProt P28222)
Sequence of 5-hydroxytryptamine receptor 1B (P28222 whole entry): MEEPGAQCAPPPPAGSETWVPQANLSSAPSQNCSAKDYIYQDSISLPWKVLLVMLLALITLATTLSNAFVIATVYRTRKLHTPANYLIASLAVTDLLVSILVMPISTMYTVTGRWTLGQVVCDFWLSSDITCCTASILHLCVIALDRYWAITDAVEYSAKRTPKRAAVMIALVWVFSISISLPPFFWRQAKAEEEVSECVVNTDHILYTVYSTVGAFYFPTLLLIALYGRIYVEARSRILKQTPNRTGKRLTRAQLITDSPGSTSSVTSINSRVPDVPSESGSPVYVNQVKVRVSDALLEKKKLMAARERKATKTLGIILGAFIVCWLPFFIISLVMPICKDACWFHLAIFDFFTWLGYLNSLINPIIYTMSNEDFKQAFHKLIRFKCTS

Sequence of Sodium-dependent serotonin transporter (P31645 whole entry): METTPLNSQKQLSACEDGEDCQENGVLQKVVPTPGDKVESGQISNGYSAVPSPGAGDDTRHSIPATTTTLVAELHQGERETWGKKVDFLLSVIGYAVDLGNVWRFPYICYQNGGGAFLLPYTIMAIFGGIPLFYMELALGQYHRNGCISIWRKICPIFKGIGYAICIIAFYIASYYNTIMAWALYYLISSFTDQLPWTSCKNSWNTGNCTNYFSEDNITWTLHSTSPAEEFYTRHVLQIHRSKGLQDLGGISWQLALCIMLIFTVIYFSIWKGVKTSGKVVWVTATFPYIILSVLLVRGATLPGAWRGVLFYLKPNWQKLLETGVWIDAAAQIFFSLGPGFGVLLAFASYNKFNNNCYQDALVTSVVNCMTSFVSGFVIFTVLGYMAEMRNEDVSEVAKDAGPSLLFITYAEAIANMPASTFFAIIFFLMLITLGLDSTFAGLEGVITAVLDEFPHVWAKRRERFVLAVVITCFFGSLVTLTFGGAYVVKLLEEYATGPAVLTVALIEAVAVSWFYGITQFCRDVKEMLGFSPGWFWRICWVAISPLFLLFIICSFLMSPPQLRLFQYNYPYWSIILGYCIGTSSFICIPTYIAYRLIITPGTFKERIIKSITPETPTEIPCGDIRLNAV
Sequence of Beta-1 adrenergic receptor (P18090 whole entry): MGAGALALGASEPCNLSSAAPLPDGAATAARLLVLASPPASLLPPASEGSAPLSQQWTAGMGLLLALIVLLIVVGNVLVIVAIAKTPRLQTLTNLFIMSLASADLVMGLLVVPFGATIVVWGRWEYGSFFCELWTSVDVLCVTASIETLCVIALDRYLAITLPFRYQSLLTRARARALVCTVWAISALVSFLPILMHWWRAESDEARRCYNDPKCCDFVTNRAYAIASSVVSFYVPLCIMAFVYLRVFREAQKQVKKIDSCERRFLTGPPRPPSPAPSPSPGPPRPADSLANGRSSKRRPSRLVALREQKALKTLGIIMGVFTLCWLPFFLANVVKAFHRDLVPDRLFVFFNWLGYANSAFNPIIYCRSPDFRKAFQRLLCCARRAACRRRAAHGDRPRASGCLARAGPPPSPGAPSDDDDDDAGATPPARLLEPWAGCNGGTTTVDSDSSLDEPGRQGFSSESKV
Sequence of 5-hydroxytryptamine receptor 7 (P34969 whole entry): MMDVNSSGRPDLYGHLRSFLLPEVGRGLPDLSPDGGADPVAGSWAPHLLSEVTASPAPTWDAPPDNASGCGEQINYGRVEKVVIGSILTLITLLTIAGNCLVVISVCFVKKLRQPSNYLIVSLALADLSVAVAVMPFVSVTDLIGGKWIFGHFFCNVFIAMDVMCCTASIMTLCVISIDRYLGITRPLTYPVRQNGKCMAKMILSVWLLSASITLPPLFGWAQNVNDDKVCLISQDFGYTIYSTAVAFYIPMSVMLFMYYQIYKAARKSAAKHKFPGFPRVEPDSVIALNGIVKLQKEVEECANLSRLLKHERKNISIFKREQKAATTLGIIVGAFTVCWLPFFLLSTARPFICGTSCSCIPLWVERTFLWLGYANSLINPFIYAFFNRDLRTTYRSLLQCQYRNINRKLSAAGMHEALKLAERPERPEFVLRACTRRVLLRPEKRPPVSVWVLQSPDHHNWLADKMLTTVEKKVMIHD
Sequence of Delta-type opioid receptor (P79291 whole entry): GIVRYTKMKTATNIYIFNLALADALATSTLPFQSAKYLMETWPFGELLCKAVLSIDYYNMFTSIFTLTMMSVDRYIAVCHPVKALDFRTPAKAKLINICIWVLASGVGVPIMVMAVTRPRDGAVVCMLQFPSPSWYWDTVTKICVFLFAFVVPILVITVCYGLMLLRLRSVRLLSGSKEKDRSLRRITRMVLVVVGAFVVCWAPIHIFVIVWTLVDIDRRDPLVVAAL
Sequence of Gamma-aminobutyric acid receptor subunit alpha-1 (P62813 whole entry): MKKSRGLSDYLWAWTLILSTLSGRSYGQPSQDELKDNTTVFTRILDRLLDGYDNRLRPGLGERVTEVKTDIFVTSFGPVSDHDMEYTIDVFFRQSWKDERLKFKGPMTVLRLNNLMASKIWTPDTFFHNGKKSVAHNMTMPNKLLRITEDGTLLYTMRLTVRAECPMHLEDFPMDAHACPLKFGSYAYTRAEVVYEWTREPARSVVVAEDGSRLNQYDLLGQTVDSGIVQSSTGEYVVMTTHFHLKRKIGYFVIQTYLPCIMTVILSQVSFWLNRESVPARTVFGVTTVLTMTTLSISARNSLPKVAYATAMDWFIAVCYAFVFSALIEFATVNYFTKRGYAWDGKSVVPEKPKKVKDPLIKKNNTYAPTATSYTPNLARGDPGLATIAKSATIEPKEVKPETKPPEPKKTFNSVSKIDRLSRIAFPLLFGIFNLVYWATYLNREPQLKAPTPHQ
Sequence of Kappa-type opioid receptor (P41145 whole entry): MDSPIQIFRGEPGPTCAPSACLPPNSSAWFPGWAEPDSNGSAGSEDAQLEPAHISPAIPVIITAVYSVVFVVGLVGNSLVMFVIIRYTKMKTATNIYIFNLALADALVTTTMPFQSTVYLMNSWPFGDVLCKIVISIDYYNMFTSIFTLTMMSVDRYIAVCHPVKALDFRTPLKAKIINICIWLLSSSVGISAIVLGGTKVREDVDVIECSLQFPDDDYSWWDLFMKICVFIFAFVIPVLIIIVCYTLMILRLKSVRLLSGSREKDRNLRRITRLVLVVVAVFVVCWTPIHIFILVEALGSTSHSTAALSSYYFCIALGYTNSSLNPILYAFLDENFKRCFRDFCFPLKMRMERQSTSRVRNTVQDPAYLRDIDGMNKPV
Sequence of Vasopressin V2 receptor (P30518 whole entry): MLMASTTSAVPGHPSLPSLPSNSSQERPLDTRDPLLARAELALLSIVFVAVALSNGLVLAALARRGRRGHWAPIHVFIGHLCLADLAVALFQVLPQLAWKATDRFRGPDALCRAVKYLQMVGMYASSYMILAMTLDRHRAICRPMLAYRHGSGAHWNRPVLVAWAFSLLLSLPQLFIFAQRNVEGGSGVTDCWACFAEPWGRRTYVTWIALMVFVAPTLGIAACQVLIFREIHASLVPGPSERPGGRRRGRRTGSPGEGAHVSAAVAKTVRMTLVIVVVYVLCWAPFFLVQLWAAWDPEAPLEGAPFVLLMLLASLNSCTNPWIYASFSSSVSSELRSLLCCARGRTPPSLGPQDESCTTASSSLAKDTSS
Sequence of D(1A) dopamine receptor (P21728 whole entry): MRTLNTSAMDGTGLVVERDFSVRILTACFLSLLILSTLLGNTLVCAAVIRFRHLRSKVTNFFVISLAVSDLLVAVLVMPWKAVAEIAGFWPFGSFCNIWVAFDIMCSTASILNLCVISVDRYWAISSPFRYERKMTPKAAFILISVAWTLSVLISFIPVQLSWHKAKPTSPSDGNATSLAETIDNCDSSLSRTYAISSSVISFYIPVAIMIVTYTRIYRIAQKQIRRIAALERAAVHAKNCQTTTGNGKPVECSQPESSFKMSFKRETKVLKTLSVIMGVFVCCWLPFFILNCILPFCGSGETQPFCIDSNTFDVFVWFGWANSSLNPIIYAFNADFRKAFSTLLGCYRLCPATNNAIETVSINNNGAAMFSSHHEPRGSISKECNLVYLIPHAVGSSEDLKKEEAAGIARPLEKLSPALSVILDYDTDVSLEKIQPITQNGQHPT
Sequence of Sodium-dependent noradrenaline transporter (P23975 whole entry): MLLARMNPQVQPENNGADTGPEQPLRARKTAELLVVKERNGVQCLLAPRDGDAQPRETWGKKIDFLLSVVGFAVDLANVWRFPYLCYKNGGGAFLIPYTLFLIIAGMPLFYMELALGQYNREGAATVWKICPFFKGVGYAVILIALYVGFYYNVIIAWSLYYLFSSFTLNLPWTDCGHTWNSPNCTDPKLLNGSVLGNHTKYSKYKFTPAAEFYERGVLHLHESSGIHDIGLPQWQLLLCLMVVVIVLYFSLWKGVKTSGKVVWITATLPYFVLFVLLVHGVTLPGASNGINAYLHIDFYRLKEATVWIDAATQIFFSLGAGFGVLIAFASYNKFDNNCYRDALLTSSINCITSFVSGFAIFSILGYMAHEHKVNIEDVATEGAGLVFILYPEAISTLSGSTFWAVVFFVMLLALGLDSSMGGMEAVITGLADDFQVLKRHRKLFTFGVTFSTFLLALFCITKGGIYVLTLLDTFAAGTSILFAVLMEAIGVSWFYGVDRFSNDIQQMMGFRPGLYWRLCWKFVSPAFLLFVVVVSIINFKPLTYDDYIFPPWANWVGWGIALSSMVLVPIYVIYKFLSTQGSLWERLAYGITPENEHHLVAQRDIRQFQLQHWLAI
Sequence of Mu-type opioid receptor (P35372 whole entry): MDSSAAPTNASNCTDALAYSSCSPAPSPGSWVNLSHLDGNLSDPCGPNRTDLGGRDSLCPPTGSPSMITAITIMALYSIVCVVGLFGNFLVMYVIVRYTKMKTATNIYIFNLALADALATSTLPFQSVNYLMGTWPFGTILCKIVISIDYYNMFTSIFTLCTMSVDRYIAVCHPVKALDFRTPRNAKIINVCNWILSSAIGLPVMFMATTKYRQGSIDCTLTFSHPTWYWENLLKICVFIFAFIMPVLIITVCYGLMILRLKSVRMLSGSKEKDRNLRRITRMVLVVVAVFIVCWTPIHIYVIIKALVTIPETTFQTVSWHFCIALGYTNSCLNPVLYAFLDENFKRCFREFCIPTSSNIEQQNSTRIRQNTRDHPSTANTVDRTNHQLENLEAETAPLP

Ki [1] [µM] | Ki [2] [µM] | Ki [3] [µM] | Ki [4] [µM] | Ki [5] [µM] | Ki [6] [µM] | Ki [7] [µM] | Ki [8] [µM] | Ki [9] [µM] | Ki [10] [µM] | Ki [11] [µM] | Ki [12] [µM] | Ki [13] [µM] | Ki [14] [µM] | Ki [15] [µM] | Ki [16] [µM] | Compound
> 10 | > 10 | > 10 | > 10 | > 10 | > 10 | > 10 | 9.34 | > 10 | > 10 | > 10 | > 10 | > 10 | > 10 | > 10 | – | C[C@@H]1O[C@@H](OC[C@H]2O[C@@H](Oc3c(-c4ccc(O)c(O)c4)oc4cc(O)cc(O)c4c3=O)[C@H](O)[C@@H](O)[C@@H]2O)[C@H](O)[C@H](O)[C@H]1O [3-Rhamnoglucosylquercetin]
> 10 | > 10 | > 10 | > 10 | > 10 | > 10 | > 10 | – | > 10 | > 10 | > 10 | > 10 | > 10 | > 10 | > 10 | – | O=c1cc(O)cc2oc(-c3ccc(O)c(O)c3)c(OC3OC(CO)C(O)C(O)C3O)c(O)c1-2 (stereo not drawn) [NSC_5318390]
> 10 | > 10 | > 10 | > 10 | > 10 | – | – | > 10 | > 10 | – | > 10 | > 10 | – | > 10 | > 10 | 4.09 | O=c1cc(O)cc2oc(-c3ccc(O)c(-c4c(O)cc(O)c5c(=O)cc(-c6ccc(O)cc6)oc45)c3)cc(O)c1-2

Further lines, the molecule ahead of its results:

Compound | Ki [1] [µM] | Ki [2] [µM] | Ki [3] [µM] | Ki [4] [µM] | Ki [5] [µM] | Ki [6] [µM] | Ki [7] [µM] | Ki [8] [µM] | Ki [9] [µM] | Ki [10] [µM] | Ki [11] [µM] | Ki [12] [µM] | Ki [13] [µM] | Ki [14] [µM] | Ki [15] [µM] | Ki [16] [µM]
O=c1c(O)c(-c2ccc(O)c(O)c2)oc2cc(O)cc(O)c12 [2-(3,4-dihydroxyphenyl)-3,5,7-trihydroxy-chromone;hydrate] | > 10 | > 10 | > 10 | > 10 | > 10 | > 10 | > 10 | > 10 | – | – | – | – | – | – | – | –
CC(C)=CCC[C@]1(C)[C@@H](CC=C(C)C)C[C@]2(CC=C(C)C)C(=O)C(CC=C(C)C)C(=O)[C@]1(C(=O)C(C)C)C2=O (stereo partly drawn) | > 10 | > 10 | > 10 | > 10 | 0.596 | > 10 | > 10 | > 10 | > 10 | – | > 10 | > 10 | > 10 | > 10 | > 10 | –
C[C@@H]1O[C@@H](Oc2c(-c3ccc(O)c(O)c3)oc3cc(O)cc(=O)c-3c2O)[C@H](O)[C@H](O)[C@H]1O | > 10 | > 10 | > 10 | > 10 | > 10 | > 10 | > 10 | > 10 | > 10 | > 10 | > 10 | > 10 | > 10 | > 10 | > 10 | –
